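These data come from cells grown in 96-well plates and exposed to compound for 48 hours at five concentrations. GI50 is the concentration that inhibits growth by half.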 Activity calls are given as the source filed them. No stated cut-off is given here; in the data, active = GI50 up to about 1.1 µM and inactive = higher.
Experiments:
Assay in all cases: NCI-60 cell line screen, 48 h
KM12 = system: KM12
SF-539 = system: SF-539
OVCAR-8 = system: OVCAR-8
COLO 205 = system: COLO 205
U-251 = system: U-251
SK-MEL-5 = system: SK-MEL-5
SF-295 = system: SF-295
IGROV-1 = system: IGROV-1
OVCAR-4 = system: OVCAR-4
HCT-116 = system: HCT-116
SR = system: SR
SF-268 = system: SF-268
A498 = system: A498
ACHN = system: ACHN
MOLT-4 = system: MOLT-4
SK-MEL-2 = system: SK-MEL-2
OVCAR-5 = system: OVCAR-5
M14 = system: M14
HT-29 = system: HT-29
NCI-H226 = system: NCI-H226

SMILES | GI50 (KM12) | GI50 (SF-539) | GI50 (OVCAR-8) | GI50 (COLO 205) | GI50 (U-251) | GI50 (SK-MEL-5) | GI50 (SF-295) | GI50 (IGROV-1) | GI50 (OVCAR-4) | GI50 (HCT-116) | GI50 (SR) | GI50 (SF-268) | GI50 (A498) | GI50 (ACHN) | GI50 (MOLT-4) | GI50 (SK-MEL-2) | GI50 (OVCAR-5) | GI50 (M14) | GI50 (HT-29) | GI50 (NCI-H226)
CC(C)N(C)C(=O)C12C3C4C1C1C2C3C41C#N (stereo not given) | > 100 µM (inactive) | > 100 µM (inactive) | > 100 µM (inactive) | > 100 µM (inactive) | > 100 µM (inactive) | > 100 µM (inactive) | > 100 µM (inactive) | > 100 µM (inactive) | > 100 µM (inactive) | > 100 µM (inactive) | > 100 µM (inactive) | > 100 µM (inactive) | > 100 µM (inactive) | > 100 µM (inactive) | > 100 µM (inactive) | > 100 µM (inactive) | > 100 µM (inactive) | > 100 µM (inactive) | > 100 µM (inactive) | –
Cc1nc2c(nc1Cl)nc(Oc1ccc(Cl)cc1)c1ccccc12 | > 100 µM (inactive) | 90.8 µM (inactive) | 23.9 µM (inactive) | > 100 µM (inactive) | 19.5 µM (inactive) | 57.5 µM (inactive) | 37.2 µM (inactive) | 55.7 µM (inactive) | 32 µM (inactive) | 41.7 µM (inactive) | > 100 µM (inactive) | 56.8 µM (inactive) | – | 39.5 µM (inactive) | > 100 µM (inactive) | > 100 µM (inactive) | > 100 µM (inactive) | 85.7 µM (inactive) | > 100 µM (inactive) | 27.9 µM (inactive)
O=S(O)CCCSSSCCCS(=O)O | > 100 µM (inactive) | > 100 µM (inactive) | – | – | > 100 µM (inactive) | – | – | – | > 100 µM (inactive) | > 100 µM (inactive) | > 100 µM (inactive) | > 100 µM (inactive) | > 100 µM (inactive) | > 100 µM (inactive) | > 100 µM (inactive) | > 100 µM (inactive) | > 100 µM (inactive) | > 100 µM (inactive) | > 100 µM (inactive) | –
Cc1nc2ccccc2c(=O)n1CC(=O)O | > 100 µM (inactive) | > 100 µM (inactive) | > 100 µM (inactive) | > 100 µM (inactive) | > 100 µM (inactive) | > 100 µM (inactive) | > 100 µM (inactive) | > 100 µM (inactive) | > 100 µM (inactive) | > 100 µM (inactive) | – | > 100 µM (inactive) | > 100 µM (inactive) | – | > 100 µM (inactive) | > 100 µM (inactive) | > 100 µM (inactive) | – | > 100 µM (inactive) | > 100 µM (inactive)
O=C1C2c3[nH]c4ccccc4c3C3CCSCC3C2C(=O)N1c1ccccc1 (stereo not given) | > 100 µM (inactive) | 59.2 µM (inactive) | > 100 µM (inactive) | > 100 µM (inactive) | > 100 µM (inactive) | > 100 µM (inactive) | > 100 µM (inactive) | > 100 µM (inactive) | > 100 µM (inactive) | > 100 µM (inactive) | – | > 100 µM (inactive) | > 100 µM (inactive) | > 100 µM (inactive) | 87.3 µM (inactive) | > 100 µM (inactive) | > 100 µM (inactive) | > 100 µM (inactive) | > 100 µM (inactive) | > 100 µM (inactive)
CC(=O)O[C@H]1CC[C@@]2(C)[C@H](CC[C@@H]3[C@@H]2CC[C@]2(C)[C@@H](c4ccc(=O)oc4)C[C@H]4O[C@]342)C1 | 2.36 µM (inactive) | 0.348 µM (active) | 0.509 µM (active) | 3.15 µM (inactive) | 1.02 µM (active) | 0.34 µM (active) | 0.515 µM (active) | 1.08 µM (active) | 0.675 µM (active) | 0.472 µM (active) | – | 0.348 µM (active) | 0.69 µM (active) | – | 0.237 µM (active) | 2.7 µM (inactive) | 4.8 µM (inactive) | – | 1.77 µM (inactive) | 2.28 µM (inactive)

Reference: ChEMBL document CHEMBL1201862, “PubChem BioAssay data set” (2004)
